Data reported in patent US20260242395A1, “AMINOHETEROARYL KINASE INHIBITORS” (ALLORION THERAPEUTICS INC, priority 2022, published 2026).

Key:
[1] = molecular target: T1, CDK4/CyclinD1 (Homo sapiens, UniProt P11802); experiment: CDK4/CyclinD1 kinase inhibitory activity (Caliper mobility shift); format: biochemical; conditions: enzyme 20 nM, ATP 672 uM, 28° C. 30 min; read-out: CDK4/Cyclin D1 IC50
T1 construct: purchased ProQinase 0142-0143-1
Experimental: CDK4/CyclinD1 kinase inhibitory activity (IC50): 5 μl of various dilutions of test compound in 1× kinase buffer (20 mM HEPES, pH 7.5, 10 mM MgCl2, 2 mM DTT and 0.01% Triton X-100) was mixed with 10 μL of either CDK4/Cyclin D1 (ProQinase, 0142-0143-1 #, final concentration 20 nM in 1× Kinase buffer) or in 384 plates and incubated at room temperature for 10 min. To initiate each reaction, 10 μL of peptide solution containing fluorescently-labeled-peptide 8(5-FAM-IPTSPITTTYFFFKKK-COOH, GL, 112396 #, final concentration 3000 nM) and ATP (final concentration 672 uM for CDK4/CyclinD1) in 1×Kinase buffer was added to each of the wells containing test compound and CDK4/CyclinD1 mixture. The reaction is then allowed to proceed at 28° C. for 30 min and terminated by the addition of 25 μL stop buffer (100 mM HEPES pH 7.5, 50 mM EDTA, 0.2% Coating Reagent #3 (Perkin Elmer, 760050 #) and 0.015% Brij-35).
(§1) Following the kinase reaction, Caliper EZ reader II (Downstream voltages: −500V, Upstream voltages: −2250V, Base pressure −0.5 PSI, Screen pressure −1.2 PSI) was used to separate the phosphorylated (product) and the unphosphorylated (substrate) fluorescently-labeled peptide 8 based on their different mobility. Both substrate and product were measured and the ratio of these values were used to generate % conversion by Caliper EZ reader II. These conversion values were then transformed into % inhibition of kinase activity using the formula: % Inhibition=[(MA−X)/(MA−MI)]×100% where MA=conversion value of DMSO only controls, MI=conversion value of no enzyme controls and X=conversion value at any given compound dose. IC50 values were then calculated by plotting dose-response curves and then using the XLfit application in Excel software.

[2] = molecular target: T2, CDK6/CyclinD3 (Homo sapiens, UniProt Q00534); experiment: CDK6/CyclinD3 kinase inhibitory activity (Caliper mobility shift); format: biochemical; conditions: enzyme 15 nM, ATP 800 μM, 28° C. 30 min; read-out: CDK6/Cyclin D3 IC50
T2 construct: purchased Carna 04-107
T2 sequence (Q00534 whole entry): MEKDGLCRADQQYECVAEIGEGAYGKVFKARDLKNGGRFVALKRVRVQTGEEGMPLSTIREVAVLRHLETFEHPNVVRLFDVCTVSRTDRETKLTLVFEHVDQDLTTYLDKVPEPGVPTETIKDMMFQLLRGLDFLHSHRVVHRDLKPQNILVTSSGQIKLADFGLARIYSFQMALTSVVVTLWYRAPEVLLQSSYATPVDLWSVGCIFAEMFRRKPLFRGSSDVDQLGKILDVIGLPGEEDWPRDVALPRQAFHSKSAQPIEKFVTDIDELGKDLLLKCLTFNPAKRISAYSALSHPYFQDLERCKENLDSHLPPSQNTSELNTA
T2 sequence (P30281 whole entry partner): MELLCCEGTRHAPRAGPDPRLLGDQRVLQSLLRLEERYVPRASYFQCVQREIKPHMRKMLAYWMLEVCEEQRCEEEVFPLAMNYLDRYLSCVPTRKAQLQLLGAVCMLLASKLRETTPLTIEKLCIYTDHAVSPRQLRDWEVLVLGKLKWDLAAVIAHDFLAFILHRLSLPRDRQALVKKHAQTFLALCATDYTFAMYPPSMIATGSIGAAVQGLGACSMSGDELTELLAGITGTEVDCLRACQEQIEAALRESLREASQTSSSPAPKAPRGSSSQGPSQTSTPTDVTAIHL
Experimental: CDK6/CyclinD3 kinase inhibitory activity (IC50): 5 μl of various dilutions of test compound in 1× kinase buffer (50 mM HEPES pH 7.5, 10 mM MgCl2, 2 mM DTT and 0.01% Brij-35) was mixed with 10 μL of CDK6/CyclinD3 (Carna, 04-107 #, final concentration 15 nM in 1× Kinase buffer) in 384 plates and incubated at room temperature for 10 min. To initiate each reaction, 10 μL of peptide solution containing fluorescently-labeled -peptide 8(5-FAM-IPTSPITTTYFFFKKK-COOH, GL, 112396 #, final concentration 3000 nM) and ATP (final concentration 800 μM for CDK6/CyclinD3 in 1× Kinase buffer was added to each of the wells containing test compound and CDK6/CyclinD3. The reaction is then allowed to proceed at 28° C. for 30 min and terminated by the addition of 25 μL stop buffer (100 mM HEPES pH 7.5, 50 mM EDTA, 0.2% Coating Reagent #3 (Perkin Elmer, 760050 #) and 0.015% Brij-35).
as §1

T1 sequence (P11802 whole entry): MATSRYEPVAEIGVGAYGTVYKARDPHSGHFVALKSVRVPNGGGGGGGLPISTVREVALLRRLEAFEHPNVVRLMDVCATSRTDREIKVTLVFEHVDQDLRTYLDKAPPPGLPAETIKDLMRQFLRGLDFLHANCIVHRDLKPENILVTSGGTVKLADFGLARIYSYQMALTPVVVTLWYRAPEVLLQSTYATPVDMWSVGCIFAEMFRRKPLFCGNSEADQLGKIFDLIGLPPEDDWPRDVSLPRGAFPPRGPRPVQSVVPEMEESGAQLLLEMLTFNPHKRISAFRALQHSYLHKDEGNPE
T1 sequence (P24385 whole entry partner): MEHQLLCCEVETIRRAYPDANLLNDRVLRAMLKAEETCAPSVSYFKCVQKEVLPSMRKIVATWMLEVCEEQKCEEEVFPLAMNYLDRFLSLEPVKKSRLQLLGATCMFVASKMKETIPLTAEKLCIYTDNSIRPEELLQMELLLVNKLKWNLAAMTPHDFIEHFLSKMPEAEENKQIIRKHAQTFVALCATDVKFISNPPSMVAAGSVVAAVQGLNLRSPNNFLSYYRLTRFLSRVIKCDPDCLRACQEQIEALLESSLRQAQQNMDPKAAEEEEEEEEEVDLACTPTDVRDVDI

| IC50 [1] [nM] | IC50 [2] [nM] | SMILES |
| --- | --- | --- |
| < 10 | 100 to 1000 | CC(C)(O)c1cnc2c(F)cc(-c3cc(N[C@@H]4CCOC[C@H]4O)ncc3Cl)cc2c1Cl [Example 42] |
| < 10 | 100 to 1000 | [2H]c1nc2c(F)cc(-c3nc(N[C@@H]4CCOC[C@H]4O)ncc3F)cc2c2c1CC1(CC1)NC2 [Example 70] |
| 10 to 100 | 100 to 1000 | Cc1nc2c(F)cc(-c3ccnc(N[C@@H]4CCOC[C@H]4O)n3)cc2c(C)c1C(C)O (single isomer, unassigned) [Example 82a] |
| < 10 | 100 to 1000 | CC(C)(O)C1COc2c(F)cc(-c3nc(N[C@@H]4CCOC[C@H]4O)ncc3Cl)cc2C1 (stereo partly drawn) [Example 46] |
| < 10 | 100 to 1000 | CNC(C)c1cnc2c(F)cc(-c3nc(N[C@@H]4CCOC[C@H]4O)ncc3Cl)cc2c1C (single isomer, unassigned) [Example 48a] |
| < 10 | 10 to 100 | [2H]c1nc(N[C@@H]2CCOC[C@H]2O)nc(-c2cc(F)c3nc(C)c(C(C)O)c(C)c3c2)c1Cl (single isomer, unassigned) [Example 85a] |
| < 10 | 100 to 1000 | Cc1nc2c(F)cc(-c3nc(N[C@@H]4CCOC[C@H]4O)ncc3F)cc2cc1C(C)(C)O [Example 51] |
| 10 to 100 | ≥ 1000 | Cc1nc2c(F)cc(-c3ccnc(N[C@@H]4CCOC[C@H]4O)n3)cc2c2c1CC(C)(C)NC2 [Example 99] |
| < 10 | 100 to 1000 | [2H]C1([2H])c2cnc3c(F)cc(-c4nc(N[C@@H]5CCOC[C@H]5O)ncc4F)cc3c2CNC1(C)C [Example 110] |
| < 10 | 100 to 1000 | COc1c(C(C)(C)O)cnc2c(F)cc(-c3nc(N[C@@H]4CCOC[C@H]4O)ncc3Cl)cc12 [Example 43] |
| 100 to 1000 | 100 to 1000 | Cc1cc(C(C)(C)O)c2cc(-c3nc(N[C@@H]4CCOC[C@H]4O)ncc3Cl)ccc2n1 [Example 4, (3S,4R)-4-((5-chloro-4-(4-(2-hydroxypropan-2-yl)-2-methylquinolin-6-yl)pyrimidin-2-yl)amino)tetrahydro-2H-pyran-3-ol] |
| < 10 | 100 to 1000 | O[C@@H]1COCC[C@H]1Nc1ncc(Cl)c(-c2cc(F)c3ncc(C4(O)CCC4)cc3c2)n1 [Example 16, (3S,4R)-4-((5-chloro-4-(8-fluoro-3-(1-hydroxycyclobutyl)quinolin-6-yl)pyrimidin-2-yl)amino)tetrahydro-2H-pyran-3-ol] |
| 100 to 1000 | ≥ 1000 | Cc1nc2c(cnc3ccc(-c4nc(N[C@@H]5CCOC[C@H]5O)ncc4Cl)cc32)[nH]1 [Example 10, (3S,4R)-4-((5-chloro-4-(2-methyl-3H-imidazo[4,5-c]quinolin-8-yl)pyrimidin-2-yl)amino)tetrahydro-2H-pyran-3-ol] |
| < 10 | 10 to 100 | [2H]c1nc(N[C@@H]2CCOC[C@H]2O)nc(-c2cc(F)c3nc([2H])c(C(C)(C)O)c(C)c3c2)c1F [Example 95] |
| 10 to 100 | 100 to 1000 | O[C@@H]1COCC[C@H]1Nc1ncc(Cl)c(-c2cc(F)c3ncc(-c4ncc[nH]4)cc3c2)n1 [Example 28] |
| < 10 | 100 to 1000 | CC1(C)NCc2c(cnc3c(F)cc(-c4nc(N[C@@H]5CCOC[C@H]5O)ncc4F)cc23)C1O (single isomer, unassigned) [Example 106a] |
| < 10 | 100 to 1000 | [2H]c1nc(N[C@@H]2CCOC[C@H]2O)nc(-c2cc(F)c3nc(C)c4c(c3c2)CNC(C)(C)C4)c1Cl [Example 103] |
| < 10 | 100 to 1000 | CNC(C)c1cc2cc(-c3nc(N[C@@H]4CCOC[C@H]4O)ncc3F)cc(F)c2nc1C (single isomer, unassigned) [Example 54b] |

| IC50 [1] [nM] | IC50 [2] [nM] | SMILES |
| --- | --- | --- |
| < 10 | 100 to 1000 | CC1NCCc2cnc3c(F)cc(-c4nc(N[C@@H]5CCOC[C@H]5O)ncc4Cl)cc3c21 (single isomer, unassigned) [Example 31b] |
| 10 to 100 | 100 to 1000 | CC(C)(O)c1cnc2c(F)cc(-c3nc(N[C@@H]4CCOC[C@H]4O)ncc3C#N)cc2c1 [Example 2, 4-(8-fluoro-3-(2-hydroxypropan-2-yl)quinolin-6-yl)-2-(((3S,4R)-3-hydroxytetrahydro-2H-pyran-4-yl)amino)pyrimidine-5-carbonitrile] |
| < 10 | 100 to 1000 | Cc1nc2c(F)cc(-c3cc(N[C@@H]4CCOC[C@H]4O)ncc3F)cc2cc1C(C)(C)O [Example 78] |
| < 10 | 100 to 1000 | Cc1nc2c(F)cc(-c3nc(N[C@@H]4CCOC[C@H]4O)ncc3F)cc2c2c1CC(C)(C)NC2 [Example 92] |
| 100 to 1000 | ≥ 1000 | CN1Cc2c(cnc3c(F)cc(-c4nc(N[C@@H]5CCOC[C@H]5O)ncc4Cl)cc23)C(O)C1(C)C (single isomer, unassigned) [Example 111b] |
| < 10 | 100 to 1000 | CC1(C)NCCc2cnc3c(F)cc(-c4nc(N[C@@H]5CCOC[C@H]5O)ncc4Cl)cc3c21 [Example 109] |
| 10 to 100 | 100 to 1000 | CC(C)(O)c1cnc2ccc(-c3nc(N[C@@H]4CCOC[C@H]4O)ncc3Cl)cc2c1 [Example 6, (3S,4R)-4-((5-chloro-4-(3-(2-hydroxypropan-2-yl)quinolin-6-yl)pyrimidin-2-yl)amino)tetrahydro-2H-pyran-3-ol] |
| 100 to 1000 | ≥ 1000 | O[C@@H]1COCC[C@H]1Nc1ncc(Cl)c(-c2cc(F)c3ncc4c(c3c2)C2CCC(C4)N2)n1 (single isomer, unassigned) [Example 20a] |
| 10 to 100 | ≥ 1000 | CC1(C)Cc2cnc3c(F)cc(-c4nc(N[C@@H]5COC[C@H]5O)ncc4Cl)cc3c2CN1 [Example 50] |
| 10 to 100 | ≥ 1000 | CC1NCCc2cnc3c(F)cc(-c4nc(N[C@@H]5CCOC[C@H]5O)ncc4Cl)cc3c21 (single isomer, unassigned) [Example 31a] |
| < 10 | 100 to 1000 | Cc1nc2c(F)cc(-c3nc(N[C@@H]4CCOC[C@H]4O)ncc3Cl)cc2c2c1CC1(CC1)NC2 [Example 69] |
| < 10 | 100 to 1000 | [2H]c1nc(N[C@@H]2CCOC[C@H]2O)nc(-c2cc(F)c3nc([2H])c4c(c3c2)CNC2(CC2)C4)c1F [Example 71] |
| < 10 | 10 to 100 | CC1(O)CCc2nc3c(F)cc(-c4nc(N[C@@H]5CCOC[C@H]5O)ncc4Cl)cc3cc21 (single isomer, unassigned) [Example 38a] |
| < 10 | 100 to 1000 | Cc1nc2c(F)cc(-c3nc(N[C@@H]4CCOC[C@H]4O)ncc3Cl)cc2c2c1CCNC2 [Example 33] |
| < 10 | 10 to 100 | [2H]c1nc(N[C@@H]2CCOC[C@H]2O)nc(-c2cc(F)c3nc(C)c(C(C)O)c(C)c3c2)c1Cl (single isomer, unassigned) [Example 85b] |
| 10 to 100 | ≥ 1000 | CC(C)(O)c1cnc2c(F)cc(-c3nc(Nc4ccc(C(=O)CO)cn4)ncc3F)cc2c1Cl [Example 80] |
| 10 to 100 | 100 to 1000 | CNC(C)c1cnc2c(F)cc(-c3nc(N[C@@H]4CCOC[C@H]4O)ncc3F)cc2c1C (single isomer, unassigned) [Example 59b] |
| 10 to 100 | 100 to 1000 | Cc1n[nH]c2cnc3ccc(-c4nc(N[C@@H]5CCOC[C@H]5O)ncc4Cl)cc3c12 [Example 11, (3S,4R)-4-((5-chloro-4-(1-methyl-3H-pyrazolo[3,4-c]quinolin-8-yl)pyrimidin-2-yl)amino)tetrahydro-2H-pyran-3-ol] |
